Series [1] has as its system U87, U87-TxR, U251, NCI-H460, NCI-H460/R, DLD1, DLD1-TxR and MRC-5. The series can be described thus: MTT cytotoxicity across the cell line panel (FIG. 1). It is filed as cell-based. The following applies: Homo sapiens. The method, then:
The MTT test was used to evaluate the effect of the compounds on cell viability. The test relies on the reduction of tetrazolium salt (MTT) to formazan, which is catalyzed by the mitochondrial enzyme succinate dehydrogenase. The activity of succinate dehydrogenase, which is indicative of mitochondrial respiration, is taken as an indirect measure of the metabolic activity of the cell, and thus its viability. The MTT-formazan produced is a purple-colored product, whose absorbance is measured at a wavelength of 570 nm. • a) To determine the inhibition of cell growth by SC, different cell lines were exposed to increasing concentrations of SC (5, 10, 25, 50, and 100 μM). […] The absorbance of the samples was measured at 570 nm using a Multiskan Sky Microplate spectrophotometer (ThermoFisher Scientific, USA). The results were analyzed using GraphPad Prism 8.0.2. software, and the IC50 values were determined by non-linear regression. • b) To test the interaction between SC and DOX in terms of cytotoxicity in different cell lines, cells were seeded in 96-well microtiter plates at a density of 2,000 cells per well for NCI-H460, NCI-H460/R, DLD1 and DLD1-TxR, and 4,000 cells per well for MRC-5, U87, U87-TxR, and U251 in 100 μl of the appropriate medium. […]

For a further series, the system named is Balb/c mice. The series can be described thus: Comparative toxicology study of DOX and CON1. It is filed as in vivo. The note with it: i.p.; for creatine phosphokinase (CPK): after 72 h, only DOX significant; for other blood parameters (RBC, HGB, HCT, MCV, MCH, MCHC, RDW, PLT, MPV): data not shown; for percentage of lymphocytes (% LYM, LYM, WBC) / percentage of monocytes and granulocytes (% MON and % GRA): over time. The method, then: Male Balb/c mice, aged 7-11 weeks, were sourced from the EL-42BIO/Br-01 (Laboratory of Pharmacology, School of Medicine, University of Thessaly, Larissa, Greece). The mice were kept in an environment with a 12-hour light/dark cycle, humidity of around 50-60%, and a temperature of 20-22° C. They had free access to food and water. The handling and experimentation of the mice were conducted in compliance with the Greek laws (PD 56/2013 and Circular 2215/117550/2013) and the European Union guidelines ([…]). The protocol was approved by the IACUC and Greek authorities (License no. 58376/13.02.2023). The mice were divided into three groups with two mice per group, amounting to a total of 18 mice. They were treated as follows: Group 1 received vehicle (10% DMSO and 5% Tween80); Group 2-DOX received 7 mg/kg of body weight via intraperitoneal injection (i.p.); Group 3 received CON1 at 14 mg/kg of body weight (to achieve a DOX concentration of 7 mg/kg of body weight), i.p. The study took place over three time points: 24 h, 48 h and 72 h. At the end of each period, blood samples were collected from the mice's tails and cheeks, and the mice were euthanized by CO2 inhalation followed by cervical dislocation. Fresh blood samples were analyzed using the scil Vet ABC™Hematology Analyzer (scil animal care company GmbH, Germany), while sera from all samples were extracted and analyzed using the Skyla VB1 Veterinary Clinical Chemistry Analyzer (Skyla Corporation, Taiwan) with the Critical Care Panel (900-330) (Skyla Corporation, Taiwan).

The test system of series [2] is spheroids of ovarian cancer cell lines that are resistant to DOX. The following applies: effect of SC; cited from earlier work.
Series [3] can be described thus: Zetasizer measurement of size, polydispersity and zeta potential. It is filed as physicochemical. The note with it: 25° C., diluted 100 times with ultrapure water, mean of three. As for the experimental part:
The Malvern Zetasizer Nano ZS (Malvern Instruments, United Kingdom) was used to analyze the physico-chemical stability characteristics of conjugates. The measurement range was from 0.6 nm up to […]. The mean size of conjugates, the polydispersity index (PDI) and zeta potential were measured. All measurements were taken at a temperature of 25° C. and each sample was diluted 100 times with ultrapure water. The measurements were repeated three times, and the results were presented as the mean value. PDI is a parameter used to define the size range of particles. The term “polydispersity” (or “dispersity” as recommended by IUPAC) describes the degree of non-uniformity of a size distribution of particles. Zeta potential represents the surface charge of nanoparticles and indicates their long-term stability.

Setting [4] is: DOX 7 mg/kg, CON1 14 mg/kg, 24, 48, 72 h.
The mark [5] stands for this setting: CON1 14 mg/kg, at 48 h, disappeared after 72 h.

Like-named read-outs stand apart in the source and are kept apart here.

As for `COc1cccc2c1C(=O)c1c(O)c3c(c(O)c1C2=O)C[C@@](O)(C(=O)CO)C[C@@H]3O[C@H]1C[C@H](N)[C@H](O)[C@H](C)O1` [DOX, doxorubicin], in series [1] (micromolar range in resistant lines, nanomolar in sensitive ones, read-out: DOX active concentration in resistant cancer cell lines), the IC50 was under 5 µM. In addition, in the series with Balb/c mice (setting [4]), the “alanine aminotransferase (ALT)” value is given as “increase” and the “alkaline phosphatase (ALP)” value is “significantly decrease”. In the series with Balb/c mice (DOX 7 mg/kg, CON1 14 mg/kg), the “creatine phosphokinase (CPK)” value is “increased”; the “other blood parameters (RBC, HGB, HCT, MCV, MCH, MCHC, RDW, PLT, MPV)” value is given as “None of the tested compounds, DOX or CON1, had any impact”; the “percentage of lymphocytes (% LYM, LYM, WBC)” value was “decreased”; the “percentage of monocytes and granulocytes (% MON and % GRA)” value was “increased”. The “levels of K” value in the series on Balb/c mice (DOX 7 mg/kg, 24, 48, 72 h) is reported as “consistently increased”.
With `C=C[C@](C)(O)CC[C@@H]1[C@@]2(C)CCCC(C)(C)[C@@H]2CC[C@@]1(C)O` [SC, sclareol], the IC50 in series [1] (range depending on the cell type, FIG. 1, MTT 72 h, read-out: IC50 value of 50% inhibition of cell growth) is 20 to 70 µM. In addition, in series [2], the “accumulation of DOX in spheroids” value is “did not enhance” and the “increase of the cytotoxicity of DOX” value is 4.5 times.
Consider “N1-((25,3S,4S,6R)-3-hydroxy-2-methyl-6-(((1S,3S)-3,5,12-trihydroxy-3-(2-hydroxyacetyl)-10-methoxy-6,11-dioxo-1,2,3,4,6,11-hexahydrotetracen-1-yl)oxy)tetrahydro-2H-pyran-4-yl)-N4-(3-((4-((R,E)-3-hydroxy-5-((1R,2R,4aS,8aS)-2-hydroxy-2,5,5,8a-tetramethyldecahydronaphthalen-1-yl)-3-methylpent-1-en-1-yl)benzyl)amino)propyl) succinamide [CON1]”, for which the “percentage of eosinophils (% EOS)” value with Balb/c mice (CON1 14 mg/kg) is on record as “not significantly relevant”. Moreover, in the series on Balb/c mice (setting [5]), the Ca levels entry is on record as “temporary increase” and the Na levels result is “decrease”. The “total bicarbonate (tCO2)” value with Balb/c mice (CON1 14 mg/kg, at 48 h, disappeared by 72 h) is listed as “transiently increased”. In the series with Balb/c mice (setting [4]), the “alanine aminotransferase (ALT)” value is recorded as “did not change” and the “alkaline phosphatase (ALP)” value is “increase ALP levels after 48 h”. Moreover, in the series on Balb/c mice (DOX 7 mg/kg, CON1 14 mg/kg), the “creatine phosphokinase (CPK)” value is given as “increased”; the “other blood parameters (RBC, HGB, HCT, MCV, MCH, MCHC, RDW, PLT, MPV)” value is reported as “None of the tested compounds, DOX or CON1, had any impact”; the “percentage of lymphocytes (% LYM, LYM, WBC)” value was “did not have any impact”; the “percentage of monocytes and granulocytes (% MON and % GRA)” value is recorded as “did not have any impact”. Further, in series [3], the Z-Average stood at 189.4 ± 9.7 nm·days.

Source of the values: US20260174860A1, “HYBRID COMPOUNDS OF SCLAREOL AND DOXORUBICIN, THEIR SYNTHESIS AND APPLICATION” (INSTITUTE FOR BIOLOGICAL RESEARCH "SINISA STANKOVIC" - …, priority 2023, published 2026).
